One compound from patent US10973912B2, “Treatment for myopathy” (Children's Medical Center Corporation, priority 2015, dated 2021) can be followed below.

In this test the test system is ryr1b homozygous mutant zebrafish. The experiment in a line: Secondary screen of individual chemicals in ryr1b zebrafish (vitality: survival and touch-evoked escape behavior). The test is classed as in vivo, zebrafish (Danio rerio). On the set-up: key: vitality score, theoretical range 0–60; DMSO controls expected ~50. Particulars: 2.0 μg/mL from 1 dpf, scored at 5 dpf; average of two replicates of 20 larvae from heterozygous ryr1b matings; score=(#Dead*0)+(#ryr1b*1)+(#Moderate*2)+(#Wild-type*3), max 60, expected 50 in DMSO controls. On the procedure:
Each scored compound represents an average of two replicates, consisting of 20 larvae from heterozygous ryr1b matings (n=40). Larvae obtained from wild-type AB matings served as positive controls. […] Significance was determined by pairwise comparisons between control and experimental pools using a Student's t-test. Vitality score=(#Dead*0)+(#ryr1b*1)+(#Moderate*2)+(#Wild-type*3). Standard deviations shown for positive and negative controls were calculated based on results from 5 and 21 independent experiments, respectively.
Primary screen. For the primary screen, twenty embryos (1 dpf) resulting from a mating of heterozygous ryr1b zebrafish were manually sorted into 48-well plates containing 250 μL embryo 1×E3 medium (5.0 mM NaCl, 0.17 mM KCl, 0.33 mM CaCl2*2H2O, 0.33 mM MgSO4*7H2O) and four pooled chemicals from the Prestwick2 chemical library. Each chemical pool was assayed in duplicate using embryos from two independent clutches, for a total of 24 distinct pools tested per plate (FIG. 1). The chemicals were dissolved to a final concentration of 2.0 μg/mL and 0.4% DMSO, which is similar to concentrations other groups have used in zebrafish studies^37,38. As a negative control, twenty embryos from each clutch were cultured without chemicals in vehicle only (0.4% DMSO) (FIG. 1). Larvae obtained from wild-type (Oregon AB) matings served as positive controls in separate plates. All plates containing embryos were incubated at 28.5° C. and maintained as initially treated for 5 days. Dead embryos were removed from wells when observed during the first 4 days of the study. On day 5, dead or “motion-dead” larvae were scored alongside living larvae.
At 5 dpf, pools were scored for their ability to improve the survival and touch-evoked escape behaviors of ryr1b homozygous mutants using the following numeric scoring system: 3=4-6 cm, fast (wild-type); 2=2-4 cm (moderate); 1=<2 cm, slow (ryr1b); 0=no movement (dead) (FIG. 2A). Survival, swimming, and combined endpoints of the primary screen were then examined for their ability to distinguish positive from negative controls. […] Taking into account both experimental replicates (n=40), hit pools contained at least 37 alive larvae on day 5 (i.e., 70-100% of the larvae assumed to be ryr1b mutants survived the duration of the study), and were selected for analysis in a secondary screen.
In the secondary screen, hit pools were separated and tested as 68 individual chemicals. Screening was performed precisely as described for the primary screen with few modifications. Embryos were raised in wells containing 750 μL 1×E3 medium, as opposed to 250 μL, although the final concentration of each compound was maintained at 2.0 μg/mL. […] Vitality scores, weighting survival and swimming ratios appropriately, were calculated as (#Dead*0)+(#ryr1b*1)+(#Moderate*2)+(#Wild-type*3). Theoretical maximum and minimum scores were 60 and 0, respectively, with an expected score of 50 in DMSO-treated controls. Secondary screen hits (P<0.05), considered “candidate” compounds, are currently being examined in dose-response and long-term studies.
The second tier of the chemical screen was performed two years following the primary screen, with a fully established ryr1b^+/− line. Healthier clutches tended to result in better survival of homozygous ryr1b mutants. Median mutant life spans more accurately adhered to the 7-15 day estimate previously published^30. Therefore, in the secondary screen, hit chemical pools were separated into individual compounds and each of 68 total compounds was examined for its ability to positively influence both ryr1b survival and motor function (referred to in combination as “vitality”). […] These included two anti-inflammatory agents (sulfasalazine and ketoprofen), two monoamine oxidase inhibitors (pargyline hydrochloride and tranylcypromine hydrochloride), and two ion channel modulators (metolazone and nimodipine).

Regarding `O=C(N/N=C/c1ccc([N+](=O)[O-])o1)c1ccc(O)cc1` [Nifuroxazide], the “Vitality Score” value worked out at 52.0.
